Results as given in ChEMBL document CHEMBL4130381, “Puromycin based inhibitors of aminopeptidases for the potential treatment of hematologic malignancies” (Eur J Med Chem, 2017).
pEC50, pIC50: −log10 of the molar value.

Key:
[1] = system: GFP protein synthesis; assay: Toxicity in human HeLa cells expressing pCFE-GFP assessed as inhibition of GFP proetin synthesis at 25 uM incubated for 30 mins measured for 2 hrs by spectrophotometric method relative to control; format: cell-based
[2] = Cytotoxicity against African green monkey Vero cells assessed as reduction in cell proliferation after 72 hrs by MTT assay; format: cell-based; details: chlorocebus sabaeus
[3] = system: GFP protein synthesis; assay: Toxicity in human HeLa cells expressing pCFE-GFP assessed as inhibition of GFP proetin synthesis at 10 uM incubated for 30 mins measured for 2 hrs by spectrophotometric method relative to control; format: cell-based
[4] = system: HL-60; assay: cells; details: Homo sapiens, HL-60, 72 h
Description: Antiproliferative activity against human HL60 cells after 72 hrs by MTT assay

[5] = system: MOLT-4; assay: cells; details: Homo sapiens, MOLT-4, 72 h
Description: Antiproliferative activity against human MOLT4 cells after 72 hrs by MTT assay

[6] = target: Puromycin-sensitive aminopeptidase (Homo sapiens, UniProt P55786); assay: Inhibition of recombinant human N-terminal His6-MBP-tagged PSA expressed in Escherichia coli BL21 STAR (DE3) using 4-Ala-MNA as substrate measured for 30 mins by thefluorescence assay
Puromycin-sensitive aminopeptidase, sequence (P55786 whole entry): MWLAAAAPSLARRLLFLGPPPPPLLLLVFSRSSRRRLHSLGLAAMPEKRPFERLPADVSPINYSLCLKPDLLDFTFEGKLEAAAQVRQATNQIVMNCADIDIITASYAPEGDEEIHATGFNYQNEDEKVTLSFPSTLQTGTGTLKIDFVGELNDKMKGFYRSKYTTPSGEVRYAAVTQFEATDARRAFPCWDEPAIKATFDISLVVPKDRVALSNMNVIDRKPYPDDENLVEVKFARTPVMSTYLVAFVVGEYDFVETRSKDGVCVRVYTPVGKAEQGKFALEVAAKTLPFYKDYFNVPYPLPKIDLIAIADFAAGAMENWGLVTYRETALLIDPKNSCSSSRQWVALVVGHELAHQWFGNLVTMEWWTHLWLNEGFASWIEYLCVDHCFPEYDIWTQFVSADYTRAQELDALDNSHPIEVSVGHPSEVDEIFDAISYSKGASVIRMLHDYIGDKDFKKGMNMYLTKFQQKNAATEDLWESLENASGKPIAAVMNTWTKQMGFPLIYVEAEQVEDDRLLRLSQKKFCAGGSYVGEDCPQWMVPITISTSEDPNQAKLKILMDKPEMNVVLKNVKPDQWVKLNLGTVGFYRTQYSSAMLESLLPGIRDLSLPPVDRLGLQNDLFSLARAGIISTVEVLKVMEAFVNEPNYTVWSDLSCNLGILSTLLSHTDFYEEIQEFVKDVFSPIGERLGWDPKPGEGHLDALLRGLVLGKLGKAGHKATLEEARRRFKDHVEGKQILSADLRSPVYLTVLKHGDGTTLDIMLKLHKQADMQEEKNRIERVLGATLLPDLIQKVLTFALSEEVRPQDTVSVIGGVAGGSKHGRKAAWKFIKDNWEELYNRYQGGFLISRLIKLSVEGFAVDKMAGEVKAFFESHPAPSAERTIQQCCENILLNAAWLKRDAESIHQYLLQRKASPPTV

[7] = target: Aminopeptidase N (Homo sapiens, UniProt P15144); assay: Inhibition of recombinant human C-terminal His10-tagged APN (Lys69 to Lys967 residues) using Ala-AMC as substrate measured for 30 mins by fluorescence assay
Aminopeptidase N, sequence (P15144 whole entry): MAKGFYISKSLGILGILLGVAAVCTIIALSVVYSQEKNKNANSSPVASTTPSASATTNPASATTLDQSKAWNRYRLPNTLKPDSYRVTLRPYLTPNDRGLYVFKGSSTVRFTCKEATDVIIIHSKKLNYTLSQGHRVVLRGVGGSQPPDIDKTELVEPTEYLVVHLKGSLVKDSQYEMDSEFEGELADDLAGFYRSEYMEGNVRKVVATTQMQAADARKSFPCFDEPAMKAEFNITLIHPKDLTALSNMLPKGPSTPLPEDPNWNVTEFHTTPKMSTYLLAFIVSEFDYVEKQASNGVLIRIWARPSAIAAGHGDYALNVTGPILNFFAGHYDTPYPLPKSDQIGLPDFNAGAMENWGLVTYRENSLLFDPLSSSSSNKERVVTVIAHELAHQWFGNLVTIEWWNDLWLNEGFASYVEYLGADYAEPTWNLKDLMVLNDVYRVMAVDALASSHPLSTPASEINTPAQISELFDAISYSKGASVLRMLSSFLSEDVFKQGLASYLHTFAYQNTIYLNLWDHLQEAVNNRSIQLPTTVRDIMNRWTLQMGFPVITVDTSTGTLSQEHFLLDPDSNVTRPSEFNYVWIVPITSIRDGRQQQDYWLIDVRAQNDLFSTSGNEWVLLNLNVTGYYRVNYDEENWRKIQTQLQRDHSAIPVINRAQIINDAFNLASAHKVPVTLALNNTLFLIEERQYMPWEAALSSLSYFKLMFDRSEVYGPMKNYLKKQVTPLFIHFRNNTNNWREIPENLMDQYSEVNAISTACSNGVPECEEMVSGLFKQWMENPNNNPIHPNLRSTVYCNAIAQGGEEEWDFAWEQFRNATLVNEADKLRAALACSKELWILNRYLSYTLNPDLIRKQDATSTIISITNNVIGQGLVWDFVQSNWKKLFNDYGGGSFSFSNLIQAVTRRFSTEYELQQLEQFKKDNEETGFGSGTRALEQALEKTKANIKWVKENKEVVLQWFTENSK

| Structure (SMILES) | inhibition at 30 min, 25 µM [1] [%] | CC50 at 72 h [2] [µM] | inhibition at 30 min, 10 µM [3] [%] | pEC50 [4] | pEC50 [5] | pIC50 [6] | pIC50 [7] |
| --- | --- | --- | --- | --- | --- | --- | --- |
| CN(C)c1ncnc2c1ncn2[C@@H]1O[C@H](CO)[C@@H](NC(=O)[C@@H](N)CSCc2ccccc2)[C@H]1O | 30 | 0.88 | 30 | 6.72 | 6.74 | – | – |
| CN(C)c1ncnc2c1ncn2[C@@H]1O[C@H](CO)[C@@H](NC(=O)[C@@H](N)CSC(c2ccccc2)c2ccccc2)[C@H]1O | 0 | > 100 | – | 4.49 | 5.89 | – | – |
| CN(C)c1ncnc2c1ncn2[C@@H]1O[C@H](CO)[C@@H](NC(=O)[C@@H](N)Cc2ccccc2)[C@H]1O | 59 | 3.2 | – | 6.39 | 6.41 | – | – |
| N[C@@H](CSC(c1ccccc1)c1ccccc1)C(=O)NCCCO | 0 | > 100 | – | < 4.00 | < 4.00 | – | – |
| CN(C)c1ncnc2c1ncn2[C@@H]1O[C@H](CO)[C@@H](NC(=O)[C@H](N)CSC(c2ccccc2)c2ccccc2)[C@H]1O | 0 | 46 | – | 4.47 | 4.96 | – | – |
| CN(C)c1ncnc2c1ncn2[C@@H]1O[C@H](CO)[C@@H](NC(=O)[C@@H](N)CSC(c2ccccc2)(c2ccccc2)c2ccccc2)[C@H]1O | 0 | > 100 | – | < 4.00 | 4.51 | – | – |
| CN(C)c1ncnc2c1ncn2[C@@H]1O[C@H](CO)[C@@H](NC(=O)[C@H](N)CSC(c2ccccc2)(c2ccccc2)c2ccccc2)[C@H]1O | 0 | 15 | – | 5.00 | 4.85 | – | – |
| CN(C)c1ncnc2c1ncn2[C@@H]1O[C@H](CO)[C@@H](NC(=O)[C@H](N)CSCc2ccccc2)[C@H]1O | 0 | 17 | – | 4.34 | 4.85 | – | – |
| COc1ccc(C[C@H](N)C(=O)N[C@H]2[C@@H](O)[C@H](n3cnc4c(N(C)C)ncnc43)O[C@@H]2CO)cc1 [PUROMYCIN] | 99 | 2.8 | – | 7.26 | 6.77 | 5.01 | 4.39 |
| CC(C)C[C@@H](C(=O)N[C@H](C(=O)OC1CCCC1)c1ccccc1)[C@H](O)C(=O)NO [TOSEDOSTAT] | 35 | 13 | – | 5.33 | 5.68 | 6.59 | 6.17 |
| CC(C)C[C@H](NC(=O)[C@@H](O)[C@H](N)Cc1ccccc1)C(=O)O [UBENIMEX] | 28 | 25 to 100 | – | < 4.00 | < 4.00 | 5.46 | – |
